Experiments:
[1] = system: MBP-SCRIB-34/4 PDZ tandem construct; experiment: Automated holdup assay, benchmark set; assay type: binding, human; conditions: overlaid electropherograms of peptide and biotin flowthroughs
[2] = system: MBP-SCRIB-4/4 PDZ construct; experiment: Automated holdup assay, benchmark set; assay type: binding, human; conditions: overlaid electropherograms of peptide and biotin flowthroughs

| Sequence | binding strength in holdup [1] | binding strength in holdup [2] |
| --- | --- | --- |
| GSGAGKETLV [NET1_05] | moderate binding | – |
| GSGAGHETIV [TMFLJ_05] | – | no binding |

Reference: article PMC4521981 (Nature methods, 2015)
